# Measurements taken from the OPERA property sets (Mansouri et al. 2018).
# Where a SMILES comes first, the peptide text is derived from it.
row,SMILES,logP
1,Cc1ccc(C(=O)OCCCn2ccc(=O)c(O)c2C)cc1,1.79
2,OC(CNCCCc1ccccc1)CON=C(C1CC1)C1CC1 (configuration not stated),2.56
3,Brc1cc(Br)c(-c2ccccc2)c(Br)c1,6.03
4,NC(=O)c1cccc(Cc2ncccn2)c1,0.28
5,CC(=O)Oc1coc(CBr)cc1=O,0.51
6,C#CCC(O)(c1ccc(C(C)C)cc1)c1cccnc1 (configuration not stated),2.16
7,OC(CCNC1CCCCC1)COc1cccc2ccccc12 (configuration not stated),3.99
8,CC(C)NCC(O)COc1ccc(-c2nc(-c3cccs3)c[nH]2)cc1 (configuration not stated),3.2
9,COC(=O)C1=C(C)NC(C)=C(C(=O)OC)C1c1cccc2c1OCO2,3.46
10,CN1CCN(C2=NC(=O)N(c3ccc(Cl)cc3)C2)CC1,2.2
11,COc1ccc(C2Cc3cc(Cl)ccc3N(CCN(C)C)C(=O)C2OC(C)=O)cc1 (configuration not stated),4.2
12,O=c1cc(CCl)oc(Cl)c1O,0.95
13,NCC(=O)NC(Cc1ccccc1)C(=O)NC(Cc1ccccc1)C(=O)O (stereo not drawn) (H-Gly-Phe-Phe-OH; configuration not given here),-1.33
14,Cc1ccccc1C1CCc2c(C(=O)N(C)C)cn3c(C)c(C)nc3c2O1 (configuration not stated),3.5
15,CC1CC2C3CCC4=CC(=O)C=CC4(C)C3(F)C(O)CC2(C)C1(O)C(=O)COC(=O)CC1CCCCC1 (configuration not stated),4.95
16,CCCCCCNC(=O)N1C(=O)N(C)CC1O (configuration not stated),2.39
17,COc1ccc(C2Cc3cc(C(F)(F)F)ccc3N(CCN(C)C)C(=O)C2CC(C)=O)cc1 (configuration not stated),4.7
18,COc1cccc(CCl)c1,2.68
19,Brc1ccc2ccc3cccc4ccc1c2c34,5.81
20,CNC(=O)Nc1ccc(C(=O)O)cc1,1.1
21,Cc1nc2c3c(c(C(=O)N(C)C)cn2c1Br)CCC(c1ccccc1)O3 (configuration not stated),3.4
22,CCCCCCNc1ncnc2c1ncn2C1OC(CO)C(O)C1O (configuration not stated),2.24
23,Cc1cccc(C)c1-c1cnc[nH]1,2.38
24,ON=Cc1nc(-c2cccs2)no1,2.47
25,COc1ccc(C2Cc3cc(OC(=O)C(C)(C)C)ccc3N(CCN(C)C)C(=O)C2OC(C)=O)cc1 (configuration not stated),4.9
26,CC(C)C(N)C(=O)NCC(=O)NC(Cc1ccccc1)C(=O)NC(C(=O)NC(Cc1ccccc1)C(=O)O)C(C)C (configuration not stated) (H-VGFVF-OH; configuration not given here),-0.5

row,SMILES,logP
1,COCCCNc1[nH]cnc2ncnc1-2,0.75
2,CNC(C)Cc1ccc(OC)cc1 (configuration not stated),1.91
3,CCCC(=NOCC)C1=C(O)CC2(CCC(CC(C)(C)C)CC2)OC1=O (configuration not stated),5.3
4,CNc1ncnc2c1ncn2Cc1ccccc1F,1.86
5,Cc1ccc(CNc2ncnc3nc[nH]c23)cc1,2.66
6,NC(Cc1c[nH]c2ccccc12)C(=O)N1CCCC1C(=O)O (configuration not stated),-0.98
7,Nc1nc(N)c2c(OCc3ccccc3)cccc2n1,2.82
8,CCc1ccc2c(c1)OCCOCCOCCOCCOCCO2,0.98
9,Cc1cccc(C)c1CCN,2.38
10,CCCCc1cnc(C2=NC(C)(C(C)C)C(=O)N2)c(C(=O)O)c1 (configuration not stated),1.99
11,CC(C)Nc1nc(=O)n(C(C)C)c(=O)n1C,0.53
12,C=CCNc1nc(CCC)nc(N2CCOCC2)n1,2.37
13,O=C(NC(Cc1c[nH]c2ccccc12)C(=O)O)OCc1ccccc1 (configuration not stated),3.2
14,O=[N+]([O-])c1ccc(CSc2ncnc3c(C4OC(CO)C(O)C4O)n[nH]c23)cc1 (configuration not stated),0.5
15,CC1(C(=O)O)CSC(c2cc(O)ccc2O)=N1 (configuration not stated),1.3
16,CC(C)CC(N)C(=O)NC(C(=O)NCC(=O)NC(C(=O)NC(Cc1ccccc1)C(=O)O)C(C)O)C(C)C (configuration not stated) (H-LVGTF-OH; configuration not given here),-1.18
17,CCNC(=S)NS(=O)(=O)c1cnccc1NC1CCCCCCC1,3.86
18,Cc1nc2c3c(c(C(=O)Nc4ccccc4)cn2c1C)CCC(c1ccccc1)O3 (configuration not stated),5.9
19,COc1ccc2cc(C(C)C(=O)OCCOC(C)=O)ccc2c1 (configuration not stated),3.5
20,OCC1OC(n2cnc3c(NCc4ccco4)ncnc32)C(O)C1O (configuration not stated),0.52
21,CCCCNC1CCc2c(OC)cccc2C1C (configuration not stated),3.73
22,c1nc2nc[nH]c(N3CCCCCC3)c-2n1,2.53
23,CCOC(=O)C(C)(Cc1cccc2ccccc12)S(=O)(=O)c1ccc([N+](=O)[O-])cc1 (configuration not stated),4.4
24,COC(=O)NC(=O)Cn1c(C)nc2ccccc2c1=O,0.4
25,C#C[C@]1(O)CC[C@H]2[C@@H]3CCC4=CC(=O)CC[C@@H]4[C@H]3C(=C)C[C@@]21CC,3.16
26,CCCCCC(O)C=CC1C(O)CC(O)C1CC=CCCCC(=O)OCc1ccccc1 (configuration not stated),4.11

row,SMILES,logP
1,COc1ccc(C2Cc3c(C#N)cccc3N(CCN(C)C)C(=O)C2OC(C)=O)cc1 (configuration not stated),3.3
2,Cc1cccc(C)c1CCc1cnc[nH]1,2.91
3,C=CCNC(=O)N(CCCCC(NC(C)=O)C(=O)NCc1ccccc1)Cc1ccccc1 (configuration not stated),1.98
4,CNc1ccc2cc3ccccc3nc2c1CO,2.1
5,CC(C)(C)[N+]([O-])=Cc1cc[n+]([O-])cc1,-1.05
6,CN1CCc2ccccc2C1,2.14
7,CCCC(=O)c1ccncc1,1.4
8,CCC(C)C(NC(=O)C(N)Cc1ccc(O)cc1)C(=O)NC(CC(C)C)C(=O)NCC(=O)O (configuration not stated) (H-YILG-OH; configuration not given here),-1.49
9,CCCc1nc(NCC)nc(N2CCCCC2)n1,3.34
10,Cc1cn(C2C=CC(COP3(=O)OCc4ccccc4O3)O2)c(=O)[nH]c1=O (configuration not stated),0.28
11,CC(C)C(N)C(=O)NC(Cc1ccccc1)C(=O)NC(Cc1ccc(O)cc1)C(=O)O (configuration not stated),-1.5
12,O=C(O)CCCCCON=C(c1ccccc1)c1cncnc1,2.91
13,O=[N+]([O-])c1ncn(C2OC(CO)C(O)C2O)n1 (configuration not stated),-1.54
14,CCN1CCCC1CNC(=O)c1c(OC)ccc(OC)c1O (configuration not stated),2.82
15,CNc1nc(NC)nc(NC(C)C)n1,1.87
16,CC(C)(C)[N+]([O-])=Cc1ccccc1[N+](=O)[O-],0.8
17,Cc1coc2c1c(C)cc1oc(=O)cc(C)c12,3.28
18,CC(C)NC(=NC#N)NS(=O)(=O)c1cnccc1Nc1cccc(Br)c1,2.27
19,Nc1nc(NC2CC2)c2ncn([C@@H]3C=C[C@@H](CO)C3)c2n1,1.22
20,Cc1ccc(CO)c(C=NNC(=O)c2ccccc2)c1O,3.01
21,O=[N+]([O-])c1nccn1CC(O)COCF (configuration not stated),-0.4
22,CCC(=O)NCCCCCN(O)C(=O)CCC(=O)NCCCCCN(O)C(=O)CCC(=O)NCCCCCN(O)C(C)=O,0.17
23,c1ccc(CSSc2ncc[nH]2)cc1,3.05
24,CCCCCC(=O)c1ccncc1,2.9
25,CC(=O)OC1C(CCl)OC(n2cc(F)c(=O)[nH]c2=O)C1OC(C)=O (configuration not stated),0.38
26,Cc1ccc(S(=O)(=O)C2(C(=O)OC(C)C)CCCCC2)cc1,3.21

row,SMILES,logP
1,O=C(Cc1ccccc1)c1c(O)c2ccc(Cl)cc2[nH]c1=O,3.66
2,c1[nH]nc2c1CCC1c3n[nH]cc3CCC21 (configuration not stated),0.3
3,C=CCNC(=O)N(CCCC(NC(C)=O)C(=O)NCc1ccccc1)Cc1ccccc1 (configuration not stated),1.44
4,CC(=O)NC(CCCCNC(=O)N(CCCl)N=O)C(=O)NCc1ccccc1 (configuration not stated),1.54
5,Cc1c(C)c2cc(C)c3occc3c2oc1=O,3.23
6,CCCNc1[nH]cnc2ncnc1-2,1.44
7,CC(C)(O)C1CCC2(C)CCCC(=O)C2C1 (configuration not stated),1.92
8,O=C(NO)C(=Cc1ccccc1)C(=O)NCc1ccc(F)cc1,1.7
9,OC(CCCN1CCC(C(O)(c2ccccc2)c2ccccc2)CC1)c1ccccc1 (configuration not stated),3.9
10,c1ccc(Nc2ncnc3nc[nH]c23)cc1,2.12
11,CN(C)CCOC(=O)c1ccc(S(C)(=O)=O)cc1,0.45
12,Nc1nc(N)c2c(I)cccc2n1,2.12
13,COC(=O)c1[nH]cc(-c2ccccc2C)c1N1CCOCC1,2.8
14,Cc1c2occc2cc2ccc(=O)oc12,2.48
15,CC1CC(=O)NN=C1c1ccc(-n2ccnc2)cc1 (configuration not stated),1.29
16,CC(=O)OC1CCCC2(C)CCC(C(C)(C)O)CC12 (configuration not stated),3.42
17,COC(=O)C(C)=CC1C(C(=O)OCc2cccc(OCc3ccccc3)c2)C1(C)C (configuration not stated),6.06
18,CC=C(C)C1(C)CC(O)=C(C(CCC)=NOCC)C(=O)O1 (configuration not stated),3.4
19,CC(CO)N(C)C (configuration not stated),0.16
20,Nc1nc(N)c2c(N3CCOCC3)cccc2n1,1.11
21,CC(C)(C)c1ccc(OCC2CN=C(N)O2)cc1 (configuration not stated),2.84
22,CCCCC(=O)NCCCCCN(O)C(=O)CCC(=O)NCCCCCN(O)C(=O)CCC(=O)NCCCCCN(O)C(C)=O,0.88
23,CC(C)CNc1[nH]cnc2ncnc1-2,1.92
24,CC1CCC(NC(=O)N2C(=O)N(C)CC2O)CC1 (configuration not stated),2.41
25,CC(C)CC(N)C(=O)N1CCCC1C(=O)O (stereo not drawn) (H-Leu-Pro-OH; configuration not given here),-1.76
26,Cc1cc(C)c2c(c1)COP(=O)(OCC1C=CC(n3cc(C)c(=O)[nH]c3=O)O1)O2 (configuration not stated),1.18

row,SMILES,logP
1,CN(C)CC(c1ccccc1)c1ccccc1,3.58
2,O=C(O)CCCCCON=C(c1ccccc1)c1ncccn1,2.25
3,COc1cc2ncnc(Nc3cccc(I)c3)c2cc1OC,3.65
4,Cc1coc2c(C)c3oc(=O)ccc3cc12,2.81
5,O=c1cc(CCl)occ1O,0.64
6,CCCCC(=O)C(CCCCOc1c(C)cc(C)cc1[N+](=O)[O-])n1cncn1 (configuration not stated),3.9
7,CCOc1ccc(C(=O)OCCCn2ccc(=O)c(O)c2C)cc1,1.79
8,Cc1ccccc1Nc1ccncc1S(=O)(=O)NC(=O)NC(C)C,3.91
9,Cc1cn(C2C=CC(COP3(=O)OCc4cc([N+](=O)[O-])ccc4O3)O2)c(=O)[nH]c1=O (configuration not stated),0.18
10,O=C1C=C(N2CCCCC2)C(=O)N1c1ccc(Cl)cc1,3.4
11,O=c1nc2[nH]nc(-c3ccccc3)cc-2c(=O)[nH]1,1.56
12,COC(=O)C(C)NP(=O)(OCC1C=CC(n2cc(C)c(=O)[nH]c2=O)O1)Oc1cccc(C(C)=O)c1 (configuration not stated),0.92
13,CN1CCCNCC1,-0.4
14,CC1CCCCN1CC1CN=C(N)O1 (configuration not stated),0.73
15,COc1nc(N)nc(NC(C)(C)C)n1,1.93
16,COc1ccc(CCNCC(O)COc2ccc(-c3nc(C(C)=O)c[nH]3)cc2)cc1OC (configuration not stated),2.7
17,Nc1ccc2nc3ccccn3c2n1,1.38
18,CCNc1ccncc1S(=O)(=O)NC(=NC#N)NC(C)C,-0.24
19,CCCN(CCc1cccs1)C1CCc2c(O)cccc2C1 (configuration not stated),4.7
20,COC1Cc2c(O)cc(O)cc2OC1c1ccc(O)c(O)c1 (configuration not stated),1
21,Cc1ccc(O)cc1N,1.16
22,NC(=O)C(CCCN1CC2CCC(CC2)C1)(c1ccccc1)c1ccccn1 (configuration not stated),2.88
23,CCN(C(C)=O)c1cccc(-c2ccnc3c(C#N)cnn23)c1,1.23
